What was measured:
Assay in all cases: relative viability (nuclei count vs DMSO), 5 days (fraction); higher = more cells survive
[1] = compound: CN(C)C[C@@H]1CCn2cc(c3ccccc32)C2=C(C(=O)NC2=O)c2cn(c3ccccc23)CCO1 [Ruboxistaurin] + C[C@]1(O)C[C@@H](c2nc(-c3ccc4ccc(-c5ccccc5)nc4c3)c3c(N)nccn32)C1 [Linsitinib] (partner 1 µM)
Outline: (§1)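 Cells from lung cancer lines were seeded into 1536-well plates and, one day later, dosed by pin tool. Treatments were either a single drug or a fixed dose of an anchor drug with five library-drug doses (not always all listed) in √10 steps. After 5 days, nuclei were stained in a one-step fixation (final 0.05% Triton X-100, 1% formaldehyde, 1 ug/ml Hoechst) and counted on 4× images, and relative viability is the treated-to-vehicle nuclei ratio, as the median of duplicate plates.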

[2] = compound: CN(C)C[C@@H]1CCn2cc(c3ccccc32)C2=C(C(=O)NC2=O)c2cn(c3ccccc23)CCO1 [Ruboxistaurin] + Cc1nc(NC(=O)N2CCC[C@H]2C(N)=O)sc1-c1ccnc(C(C)(C)C(F)(F)F)c1 [Alpelisib] (partner 2 µM)
Outline: as §1

[3] = compound: CN(C)C[C@@H]1CCn2cc(c3ccccc32)C2=C(C(=O)NC2=O)c2cn(c3ccccc23)CCO1 [Ruboxistaurin] + CS(=O)(=O)N1CCN(Cc2cc3nc(-c4cccc5[nH]ncc45)nc(N4CCOCC4)c3s2)CC1 [Pictilisib] (partner 1 µM)
Outline: as §1

[4] = compound: CN(C)C[C@@H]1CCn2cc(c3ccccc32)C2=C(C(=O)NC2=O)c2cn(c3ccccc23)CCO1 [Ruboxistaurin] + CC(C)C[C@H](NC(=O)[C@H](Cc1ccccc1)NC(=O)c1cnccn1)B(O)O [Bortezomib] (partner 0.002 µM)
Outline: as §1

[5] = compound: CN(C)C[C@@H]1CCn2cc(c3ccccc32)C2=C(C(=O)NC2=O)c2cn(c3ccccc23)CCO1 [Ruboxistaurin] + C[C@@H](Oc1cc(-c2cnn(C3CCNCC3)c2)cnc1N)c1c(Cl)ccc(F)c1Cl [Crizotinib] (partner 1 µM)
Outline: as §1

Cell Line | relative viability ([1]; first compound 0.08 µM) | relative viability ([1]; first compound 0.8 µM) | relative viability ([1]; first compound 2.53 µM) | relative viability ([1]; first compound 8 µM) | relative viability ([2]; first compound 0.08 µM) | relative viability ([2]; first compound 0.8 µM) | relative viability ([2]; first compound 2.53 µM) | relative viability ([2]; first compound 8 µM) | relative viability ([3]; first compound 0.08 µM) | relative viability ([3]; first compound 0.8 µM) | relative viability ([3]; first compound 2.53 µM) | relative viability ([3]; first compound 8 µM) | relative viability ([4]; first compound 0.08 µM) | relative viability ([4]; first compound 0.8 µM) | relative viability ([4]; first compound 2.53 µM) | relative viability ([4]; first compound 8 µM) | relative viability ([5]; first compound 0.08 µM) | relative viability ([5]; first compound 0.8 µM) | relative viability ([5]; first compound 2.53 µM) | relative viability ([5]; first compound 8 µM)
HCC-78 | 0.531 | 0.501 | 0.455 | 0.482 | 0.358 | 0.311 | 0.327 | 0.286 | 0.198 | 0.245 | 0.195 | 0.174 | 0.711 | 0.427 | 0.618 | 0.397 | 0.31 | 0.351 | 0.323 | 0.291
HCC-366 | 0.691 | 0.526 | 0.68 | 0.33 | 0.536 | 0.326 | 0.373 | 0.226 | 0.237 | 0.116 | 0.151 | 0.137 | 1.05 | 1.05 | 1.05 | 0.986 | 0.58 | 0.518 | 0.605 | 0.536
HCC-827 | 0.933 | 0.962 | 0.951 | 1 | 1.13 | 1.02 | 0.984 | 0.969 | 0.993 | 0.866 | 1.08 | 1.27 | 1.01 | 1.01 | 1.06 | 1.14 | 0.977 | 0.907 | 1.01 | 0.96
HOP-62 | 0.972 | 0.963 | 0.869 | 1 | 0.932 | 1.08 | 0.992 | 1 | 0.732 | 0.755 | 0.535 | 0.546 | 0.736 | 0.536 | 0.734 | 0.642 | 0.882 | 1.05 | 0.741 | 1.05
IA-LM | 0.734 | 0.277 | 0.6 | 0.685 | 0.971 | 0.663 | 0.747 | 0.612 | 0.389 | 0.271 | 0.381 | 0.323 | 0.891 | 0.669 | 1.1 | 0.98 | 1.01 | – | 0.967 | 0.938
LC-2-ad | 0.931 | 0.862 | 0.912 | 0.742 | 0.779 | 0.785 | 0.846 | 0.783 | 0.481 | 0.347 | 0.495 | 0.286 | 1.17 | 0.929 | 1.15 | 1.06 | 0.458 | 0.406 | 0.476 | 0.638
LCLC-97TM1 | 0.169 | – | 0.166 | 0.151 | 0.245 | – | 0.223 | 0.204 | 0.221 | – | 0.161 | 0.127 | 0.845 | 0.487 | 0.58 | 0.685 | 0.358 | – | 0.474 | 0.404
LCLC-103H | 1.13 | 0.834 | 0.883 | 1.15 | 0.99 | 0.802 | 0.826 | 0.862 | 0.632 | 0.611 | 0.511 | 0.533 | 1.19 | 1.12 | 0.968 | 1.01 | 1.21 | 0.929 | 0.905 | 1.01
LK-2 | 0.493 | 0.589 | 0.717 | 0.261 | 1.19 | 1.01 | 1 | 0.577 | 0.595 | 0.52 | 0.652 | 0.303 | – | – | – | – | 0.249 | 0.242 | 0.278 | 0.257
LOU-NH91 | 1.11 | 0.902 | 0.994 | 0.883 | 0.846 | 0.666 | 0.705 | 0.676 | 0.554 | 0.494 | 0.526 | 0.502 | 0.475 | 0.473 | 0.443 | 0.457 | 0.806 | 0.694 | 0.757 | 0.77
LU99A | 0.614 | 0.455 | 0.463 | 0.33 | 0.552 | 0.48 | 0.45 | 0.297 | 0.338 | 0.275 | 0.242 | 0.21 | 1.19 | 1.06 | 1.11 | 0.968 | 0.507 | 0.506 | 0.503 | 0.506
NCI-H358 | 0.835 | 0.59 | 0.63 | 0.367 | 0.927 | 0.666 | 0.75 | 0.424 | 0.326 | 0.297 | 0.3 | 0.235 | – | – | – | – | 0.518 | 0.517 | 0.609 | 0.573
NCI-H1395 | 1.22 | 1.02 | 1.26 | 1.08 | 1.06 | 0.944 | 1.12 | 0.931 | 0.635 | 0.611 | 0.713 | 0.518 | – | – | – | – | – | – | – | –
NCI-H1650 | – | – | – | – | – | – | – | – | 0.679 | 0.402 | 0.646 | 0.359 | 0.216 | 0.192 | 0.212 | 0.195 | 0.991 | 0.837 | 1.19 | 1.04
NCI-H1793 | 1.07 | 0.818 | 0.985 | 1.14 | 0.939 | 0.517 | 0.615 | 0.817 | 0.454 | 0.288 | 0.478 | 0.316 | – | – | – | – | – | – | – | –
NCI-H1944 | 1.23 | 1.1 | 1.12 | 1.01 | 0.866 | 0.722 | 0.716 | 0.738 | 0.332 | 0.279 | 0.354 | 0.31 | – | – | – | – | 1.15 | 1.01 | 1.06 | 1.03
NCI-H2170 | – | – | – | – | 0.82 | 0.716 | 0.823 | 0.694 | 0.301 | 0.256 | 0.322 | 0.253 | – | – | – | – | 1.15 | 1.13 | 1.2 | 1.21
SK-MES-1 | 1.08 | 1 | 1.02 | 0.996 | 1 | 0.782 | 0.837 | 0.801 | 0.417 | 0.3 | 0.323 | 0.316 | – | – | – | – | 1.06 | 1.03 | 0.979 | 0.972
